Legend:
[1] = target: high affinity nicotinic receptors; test: Inhibition of L-[3H]nicotine binding to mouse brain membrane preparations; design: species or system Mice (DBA strain); details: 10 nM L-[3H]nicotine, 2 hr at 4° C., mouse brain membranes, Ki calculated from IC50 by Cheng method
Protocol: Mice (DBA strain) were maintained on a 12 hour light/dark cycle and were allowed free access to water and food supplied by Wayne Lab Blox, Madison, WI. Animals used in the present studies were 60 to 90 days of age and weighed 20 to 25 g. Brain membrane preparations were obtained from pooled brain tissue of both males and females.
Mice were killed by cervical dislocation. Brains were removed and placed on an ice-cold platform. The cerebellum was removed and the remaining tissue was placed in 10 volumes (weight:volume) of ice-cold buffer (Krebs-RingersHEPES:NaCl, 118 mM; KCl, 4.8 mM; CaCl2, 2.5 mM; MgSO4, 1.2 mM; HEPES, 20 mM; pH to 7.5 with NaOH) and homogenized with a glass-Teflon tissue grinder. The resulting homogenate was centrifuged at 18000×g for 20 min. and the resulting pellet was resuspended in 20 volumes of water. […] Protein was determined by the method of Lowry, et al., J. Biol. Chem., Vol. 193, pp. 265-275 (1951), using bovine serum albumin as the standard.
The binding of L-[^3 H]nicotine was measured using a modification of the method of Romano, et al., Science, Vol. 210, pp. 647-650 (1980) as described previously by Marks, et al., Mol. Pharmacol., Vol. 30, pp. 427-436 (1986). The binding of L-[^3 H]nicotine was measured using a 2 hr. incubation at 4° C. […] Nonspecific binding was determined by inclusion of 10 μM nonradioactive nicotine in the incubations. […]

[2] = tested on: synaptosomes from the striatal area of rat brain; test: [3H]-dopamine release from striatal synaptosomes, continuous perfusion; format: cell-based, Sprague-Dawley rats; details: 0.2 ml of a 20 μM solution of ligand, relative to equal concentration of S(-) nicotine, read-out: Dopamine Release (percent release relative to S(-) nicotine)
Protocol: Dopamine release was measured by preparing synaptosomes from the striatal area of rat brain obtained from Sprague-Dawley rats generally according to the procedures set forth by Nagy, et al., J. Neurochem., Vol. 43, pp. 1114-1123 (1984). Striata from 4 rats were homogenized in 2 ml of 0.32M sucrose buffered with 5 mM HEPES (pH 7.5), using a glass-teflon tissue grinder. The homogenate was diluted to 5 ml with additional homogenization solution and centrifuged at 1000×g for 10 min. This procedure was repeated on the new pellet and the resulting supernatant was centrifuged at 12,000×g for 20 min. […] Using this method, 30 to 90 percent of the dopamine was taken up into the synaptosomes, as determined by scintillation counting following filtration through glass fiber filters soaked with 0.5 percent polyethyleneimine. […] After the addition of a 0.2 ml of a 20 μM solution of ligand, the perfusate was collected into scintillation vials at 1 min. intervals and the dopamine released was quantified by scintillation counting. Peaks of radioactivity released above background were summed and the average basal release during that time was subtracted from the total. Release was expressed as a percentage of release obtained with an equal concentration of S(-) nicotine.

Work on `CNCC/C=C/c1cccnc1` [trans-meta-nicotine] yielded a Ki [1] of 21 ± 5 nM and an Emax [2] of 70%.
